Values of other authors in patent publication US9000165B2 (priority 2011, dated 2015).

Tests used:
serotonin reuptake sites = serotonin reuptake sites (Homo sapiens, UniProt P31645)
histamine H1 receptors = histamine H1 receptors (Homo sapiens, UniProt P35367)
[1] = target: serotonin 5-HT2A receptors (Homo sapiens, UniProt P28223)
[2] = target: T1, serotonin 5-HT2C receptors (Homo sapiens, UniProt P28335)
T1 sequence (P28335 33-458): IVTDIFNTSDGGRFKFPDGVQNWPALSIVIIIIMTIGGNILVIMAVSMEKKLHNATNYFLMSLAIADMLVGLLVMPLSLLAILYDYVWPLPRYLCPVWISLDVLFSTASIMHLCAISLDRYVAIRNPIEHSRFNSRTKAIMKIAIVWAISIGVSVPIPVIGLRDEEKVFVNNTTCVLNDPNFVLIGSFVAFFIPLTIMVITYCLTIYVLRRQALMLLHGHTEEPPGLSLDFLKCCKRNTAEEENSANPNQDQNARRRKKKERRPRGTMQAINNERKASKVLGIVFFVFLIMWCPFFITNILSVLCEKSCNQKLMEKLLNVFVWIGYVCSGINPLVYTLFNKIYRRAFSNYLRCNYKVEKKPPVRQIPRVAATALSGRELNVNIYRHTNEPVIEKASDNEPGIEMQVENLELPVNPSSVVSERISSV

[3] = tested on: cholinergic muscarinic receptors
[4] = tested on: α1-adrenaline agonist receptors
[5] = target: T2, serotonin 5-HT1A receptors (Homo sapiens, UniProt P08908)
T2 sequence (P08908 1-422): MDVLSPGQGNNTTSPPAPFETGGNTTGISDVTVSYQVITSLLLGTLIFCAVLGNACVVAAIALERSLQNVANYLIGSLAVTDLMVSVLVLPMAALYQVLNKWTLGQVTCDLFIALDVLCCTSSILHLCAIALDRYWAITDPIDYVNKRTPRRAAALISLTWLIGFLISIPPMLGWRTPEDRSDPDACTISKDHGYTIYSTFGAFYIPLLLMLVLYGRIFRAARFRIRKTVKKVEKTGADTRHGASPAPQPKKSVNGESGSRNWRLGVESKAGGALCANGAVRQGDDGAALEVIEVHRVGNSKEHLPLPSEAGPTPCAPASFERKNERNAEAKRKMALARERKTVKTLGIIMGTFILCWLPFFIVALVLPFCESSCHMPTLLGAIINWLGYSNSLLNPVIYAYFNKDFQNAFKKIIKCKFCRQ

[6] = upon exposure to moisture converts into the hydrate form

Chain of histamine H1 receptors (P35367 whole entry): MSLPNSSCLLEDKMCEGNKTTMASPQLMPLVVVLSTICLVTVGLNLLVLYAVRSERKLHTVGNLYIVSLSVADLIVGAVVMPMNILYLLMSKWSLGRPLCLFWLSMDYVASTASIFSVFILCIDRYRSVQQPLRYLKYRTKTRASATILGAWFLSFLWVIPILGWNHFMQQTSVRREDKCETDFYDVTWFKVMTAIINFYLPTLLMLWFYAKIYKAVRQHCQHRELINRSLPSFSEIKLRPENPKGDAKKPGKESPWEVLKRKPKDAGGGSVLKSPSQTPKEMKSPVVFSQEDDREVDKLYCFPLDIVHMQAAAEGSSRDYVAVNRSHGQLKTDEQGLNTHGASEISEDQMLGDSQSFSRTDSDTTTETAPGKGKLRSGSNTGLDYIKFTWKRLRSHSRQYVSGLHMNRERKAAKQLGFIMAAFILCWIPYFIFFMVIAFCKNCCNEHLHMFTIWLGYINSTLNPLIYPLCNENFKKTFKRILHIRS
Chain of serotonin 5-HT2A receptors (P28223 whole entry): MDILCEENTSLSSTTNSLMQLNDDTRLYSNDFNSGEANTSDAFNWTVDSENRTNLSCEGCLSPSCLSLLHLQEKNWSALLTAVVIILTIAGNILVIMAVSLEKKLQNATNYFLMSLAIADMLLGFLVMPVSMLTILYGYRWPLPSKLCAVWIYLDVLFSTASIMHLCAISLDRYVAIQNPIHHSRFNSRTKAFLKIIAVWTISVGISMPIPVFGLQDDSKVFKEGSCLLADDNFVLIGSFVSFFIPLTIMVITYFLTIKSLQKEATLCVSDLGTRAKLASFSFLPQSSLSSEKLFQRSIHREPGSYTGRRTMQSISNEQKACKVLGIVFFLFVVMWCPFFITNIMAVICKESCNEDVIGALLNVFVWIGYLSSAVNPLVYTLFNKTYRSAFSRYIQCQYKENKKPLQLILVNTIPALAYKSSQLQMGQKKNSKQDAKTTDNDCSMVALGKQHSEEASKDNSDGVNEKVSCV
Chain of serotonin reuptake sites (P31645 whole entry): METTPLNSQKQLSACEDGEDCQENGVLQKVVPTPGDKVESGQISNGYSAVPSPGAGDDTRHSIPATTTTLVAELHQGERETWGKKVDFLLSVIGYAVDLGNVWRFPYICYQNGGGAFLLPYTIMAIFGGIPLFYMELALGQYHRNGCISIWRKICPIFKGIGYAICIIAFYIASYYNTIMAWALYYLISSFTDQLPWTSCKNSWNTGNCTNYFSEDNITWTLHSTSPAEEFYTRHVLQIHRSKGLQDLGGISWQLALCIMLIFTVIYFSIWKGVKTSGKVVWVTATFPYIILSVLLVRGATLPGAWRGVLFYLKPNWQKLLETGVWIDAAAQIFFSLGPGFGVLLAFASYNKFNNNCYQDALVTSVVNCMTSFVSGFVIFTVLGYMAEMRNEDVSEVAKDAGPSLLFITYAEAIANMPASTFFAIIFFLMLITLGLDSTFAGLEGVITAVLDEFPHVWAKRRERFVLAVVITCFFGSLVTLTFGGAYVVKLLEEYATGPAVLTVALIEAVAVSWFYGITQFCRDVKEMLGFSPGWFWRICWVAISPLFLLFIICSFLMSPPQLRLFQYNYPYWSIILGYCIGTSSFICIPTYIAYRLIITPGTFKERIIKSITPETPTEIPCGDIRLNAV

O=C1CCc2ccc(OCCCCN3CCN(c4cccc(Cl)c4Cl)CC3)cc2N1 [Aripiprazole]
affinity for serotonin reuptake sites (serotonin reuptake sites): mild affinity
affinity for histamine H1 receptors (histamine H1 receptors): mild affinity
affinity for serotonin 5-HT2A receptors [1]: potent affinity
affinity for serotonin 5-HT2C receptors [2]: mild affinity
affinity for cholinergic muscarinic receptors [3]: no detectable affinity
affinity for α1-adrenaline agonist receptors [4]: mild affinity
affinity for serotonin 5-HT1A receptors [5]: potent affinity

O=C1CCc2ccc(OCCCCN3CCN(c4cccc(Cl)c4Cl)CC3)cc2N1 [anhydrous aripiprazole crystal form I, Aripiprazole]
hygroscopic property [6]: significant hygroscopic property
